Experimental data taken from the supplement of paper PMC10307832.

Tests used:
Experiment in all cases: relative viability (nuclei count vs DMSO), 5 days (fraction); higher = more cells survive
AZD8055 = compound: COc1ccc(-c2ccc3c(N4CCOC[C@@H]4C)nc(N4CCOC[C@@H]4C)nc3n2)cc1CO [AZD8055]
In short: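 Five library-drug doses, separated by factors of √10, were pinned into 1536-well plates holding lung cancer cell lines after an overnight stay at 37 °C. Cells were fixed, permeabilised and Hoechst-stained in one step after 5 days without medium change, then imaged at 4×. Viability compares treated-well with vehicle-well nuclei, counted in MetaXpress, as a median across plates. Passing plates had control CV below 25% and at least one doubling.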

AZD8055 + Olaparib = compound: COc1ccc(-c2ccc3c(N4CCOC[C@@H]4C)nc(N4CCOC[C@@H]4C)nc3n2)cc1CO [AZD8055] + O=C(c1cc(Cc2n[nH]c(=O)c3ccccc23)ccc1F)N1CCN(C(=O)C2CC2)CC1 [Olaparib] (partner 8 µM)
In short: (§1)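 Five library-drug doses in √10 steps were combined with a fixed anchor-drug dose, or a single drug was given alone, by pin tool to lung cancer cell lines in 1536-well plates the day after seeding. Nuclei were stained and counted after 5 days. Relative viability is the nuclei count in treated wells over that in vehicle wells, taken as the median of duplicate plates.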

AZD8055 + Phenformin = compound: COc1ccc(-c2ccc3c(N4CCOC[C@@H]4C)nc(N4CCOC[C@@H]4C)nc3n2)cc1CO [AZD8055] + N=C(N)NC(=N)NCCc1ccccc1 [Phenformin] (partner 250 µM)
In short: as §1

AZD8055 + Trametinib = compound: COc1ccc(-c2ccc3c(N4CCOC[C@@H]4C)nc(N4CCOC[C@@H]4C)nc3n2)cc1CO [AZD8055] + CC(=O)Nc1cccc(-n2c(=O)n(C3CC3)c(=O)c3c(Nc4ccc(I)cc4F)n(C)c(=O)c(C)c32)c1 [Trametinib] (partner 0.02 µM)
In short: as §1

| Cell Line | relative viability (AZD8055; 0.01 µM) | relative viability (AZD8055; 0.03162 µM) | relative viability (AZD8055; 0.1 µM) | relative viability (AZD8055; 0.3162 µM) | relative viability (AZD8055; 1 µM) | relative viability (AZD8055 + Olaparib; first compound 0.01 µM) | relative viability (AZD8055 + Olaparib; first compound 0.03162 µM) | relative viability (AZD8055 + Olaparib; first compound 0.1 µM) | relative viability (AZD8055 + Olaparib; first compound 0.3162 µM) | relative viability (AZD8055 + Olaparib; first compound 1 µM) | relative viability (AZD8055 + Phenformin; first compound 0.01 µM) | relative viability (AZD8055 + Phenformin; first compound 0.03162 µM) | relative viability (AZD8055 + Phenformin; first compound 0.1 µM) | relative viability (AZD8055 + Phenformin; first compound 0.3162 µM) | relative viability (AZD8055 + Phenformin; first compound 1 µM) | relative viability (AZD8055 + Trametinib; first compound 0.01 µM) | relative viability (AZD8055 + Trametinib; first compound 0.03162 µM) | relative viability (AZD8055 + Trametinib; first compound 0.1 µM) | relative viability (AZD8055 + Trametinib; first compound 0.3162 µM) | relative viability (AZD8055 + Trametinib; first compound 1 µM) |
| --- | --- | --- | --- | --- | --- | --- | --- | --- | --- | --- | --- | --- | --- | --- | --- | --- | --- | --- | --- | --- |
| LCLC-97TM1 | 1.04 | 0.822 | 0.453 | 0.246 | 0.205 | 0.413 | 0.308 | 0.216 | 0.105 | 0.0929 | 0.477 | 0.182 | 0.178 | 0.121 | 0.187 | 0.194 | 0.164 | 0.124 | 0.138 | 0.123 |
| HARA | 1.11 | 1.06 | 0.774 | 0.563 | 0.304 |  | 0.687 | 0.58 | 0.39 | 0.246 | 0.548 | 0.478 | 0.5 | 0.307 | 0.215 |  | 0.671 | 0.497 | 0.285 | 0.223 |
| HCC-78 | 1.03 | 0.837 | 0.615 | 0.395 | 0.457 | 0.758 | 0.632 | 0.54 | 0.388 | 0.383 | 0.684 | 0.64 | 0.437 | 0.386 | 0.35 | 0.819 | 0.596 | 0.597 | 0.409 | 0.349 |
| NCI-H1666 | 1.1 | 1.07 | 0.925 | 0.802 | 0.675 | 0.875 | 0.81 | 0.771 | 0.714 | 0.674 | 0.619 | 0.553 | 0.584 | 0.542 | 0.488 | 0.887 | 0.877 | 0.877 | 0.797 | 0.793 |
| NCI-H2347 | 1.14 | 0.942 | 0.911 | 0.5 | 0.48 | 0.57 | 0.491 | 0.502 | 0.328 | 0.395 | 0.381 | 0.283 | 0.338 | 0.178 | 0.205 | 0.282 | 0.299 | 0.277 | 0.233 | 0.233 |
| NCI-H838 | 1.05 | 0.676 | 0.442 | 0.322 | 0.339 | 0.687 | 0.597 | 0.351 | 0.259 | 0.29 | 0.553 | 0.362 | 0.354 | 0.233 | 0.218 | 0.499 | 0.335 | 0.279 | 0.19 | 0.201 |
| NCI-H2023 | 0.901 | 0.618 | 0.362 | 0.163 | 0.153 | 0.434 | 0.402 | 0.224 | 0.148 | 0.142 | 0.463 | 0.326 | 0.293 | 0.138 | 0.13 | 0.454 | 0.43 | 0.187 | 0.152 | 0.122 |
| 201T | 0.955 | 0.987 | 0.907 | 0.635 | 0.487 | 0.878 | 0.854 | 0.813 | 0.673 | 0.456 | 0.473 | 0.438 | 0.422 | 0.318 | 0.314 | 0.7 | 0.689 | 0.629 | 0.519 | 0.492 |
| NCI-H1915 | 1.01 | 0.81 | 0.959 | 0.63 | 0.513 | 0.257 | 0.262 | 0.289 | 0.238 | 0.204 | 0.373 | 0.348 | 0.356 | 0.364 | 0.302 | 0.286 | 0.254 | 0.259 | 0.174 | 0.146 |
| NCI-H2009 | 1.03 | 0.918 | 0.924 | 0.501 | 0.344 | 0.677 | 0.861 | 0.634 | 0.344 | 0.254 | 0.508 | 0.455 | 0.486 | 0.294 | 0.228 | 0.249 | 0.248 | 0.205 | 0.14 | 0.141 |
| BEN | 0.901 | 0.6 | 0.53 | 0.358 | 0.325 | 1.15 | 0.884 | 0.658 | 0.455 | 0.518 | 0.293 | 0.26 | 0.292 | 0.242 | 0.228 | 0.87 | 0.626 | 0.569 | 0.467 | 0.463 |
| PC-14 | 1.23 | 1.09 | 0.715 | 0.286 | 0.178 | 0.461 | 0.401 | 0.321 | 0.163 | 0.142 | 0.857 | 0.595 | 0.284 | 0.216 | 0.167 | 0.743 | 0.715 | 0.179 | 0.108 | 0.138 |
| SK-MES-1 | 0.967 | 0.892 | 0.809 | 0.408 | 0.289 | 0.748 | 0.484 | 0.328 | 0.208 | 0.262 | 0.658 | 0.645 | 0.608 | 0.311 | 0.216 | 0.462 | 0.543 | 0.354 | 0.313 | 0.303 |
| NCI-H727 | 1.17 | 0.953 | 0.695 | 0.544 | 0.412 | 0.818 | 0.812 | 0.744 | 0.603 | 0.52 | 0.542 | 0.38 | 0.584 | 0.33 | 0.327 | 0.352 | 0.399 | 0.368 | 0.37 | 0.458 |
| NCI-H1355 | 0.889 | 0.865 | 0.578 | 0.303 | 0.261 | 0.694 | 0.622 | 0.553 | 0.269 | 0.266 | 0.442 | 0.396 | 0.344 | 0.286 | 0.28 | 0.379 | 0.321 | 0.29 | 0.211 | 0.211 |
| NCI-H1975 | 1.05 | 0.812 | 0.55 | 0.347 | 0.283 | 0.976 | 0.677 | 0.464 | 0.221 | 0.189 | 0.369 | 0.309 | 0.233 | 0.172 | 0.174 | 0.417 | 0.313 | 0.193 | 0.192 | 0.18 |
